Assay results published in patent publication US20060079453A1, “Hla binding peptides and their uses” (priority 2002, published 2006).
No end group written: not given here.

Tests used:
Experiment in all cases: biochemical
Assay type in all cases: binding
[1] = target: HLA-DR DRB1*1501 (DR15) (Homo sapiens, UniProt P01903+P01911); settings: DRBI *1501
[2] = target: HLA-DR DRB1*0901 (DR9) (Homo sapiens, UniProt P01903+P01911, A100R/A103E/D57H/D86V/F55Y/F60I/F76Y/I96F/K127E/L162R/M171V/P40D/Q125H/Q99R/R33Q/R42F/S133A/S66N/T210M/V115G/W38K/Y107V/Y59G/Y89S); settings: DRB1 *0901
[3] = target: HLA-DR DRB1*0401 (DR4) (Homo sapiens, UniProt P01903+P01911, A100K/A169T/F76Y/I96L/K127E/L162R/M171V/N62H/P40V/Q125Y/R42H/S133A/S149N/S66Y/V115G/V209L/W38E); settings: DRB1 *0401
[4] = target: HLA-DR DRB1*0802 (DR8) (Homo sapiens, UniProt P01903+P01911, A100R/A103L/A169T/F76Y/H45Y/I96F/K41T/L162R/M171V/P40S/Q125H/Q178H/Q39Y/Q99D/R218S/R42G/S66Y/V115G/W38E)
[5] = target: HLA-DR DRB1*0101 (DR1) (Homo sapiens, UniProt P01903+P01911, A100R/D57E/F55L/F60I/F76Y/I96L/L162R/M171V/P40L/Q125E/R42F/V115G/Y59C); settings: DRB1 *0101
[6] = target: HLA-DR DRB1*1101 (DR11) (Homo sapiens, UniProt P01903+P01911, A100R/A169T/A87E/I96F/K41T/L162R/M171V/P40S/Q125H/Q178H/Q39Y/Q99D/R42S/S66Y/T262R/V115G/W38E); settings: DRB1 *1101
[7] = target: HLA-DR DRB1*1302 (DR13) (Homo sapiens, UniProt P01903+P01911, A100E/A169T/K41T/L162R/M171V/P40S/Q125H/Q178H/Q39Y/Q99D/R42S/S66N/T262R/V115G/W38E/Y61H); settings: DRBI *1302
[8] = target: HLA-DR DRB3*0101 (DR52) (Homo sapiens, UniProt P01903+P79483)
[9] = target: HLA-DR DRB1*0701 (DR7) (Homo sapiens, UniProt P01903+P01911, A100R/A102G/A103Q/D57E/D86V/E43K/F76Y/K127E/L162R/M171V/P40G/Q125H/Q99D/R33Q/R42Y/R54Q/S133A/S66F/T210M/V115G/Y107V/Y59L/Y89S); settings: DRB1 *0701
[10] = target: HLA-DR DRB5*0101 (DR51) (Homo sapiens, UniProt P01903+Q30154); settings: DRB5 *0101
[11] = target: HLA-DR DRB4*0101 (DR53) (Homo sapiens, UniProt P01903+P13762, G164S); settings: DRB4 *0101

HLA-DR DRB1*1101 (DR11), sequence (P01903 26-254 limits assumed, other chains not shown): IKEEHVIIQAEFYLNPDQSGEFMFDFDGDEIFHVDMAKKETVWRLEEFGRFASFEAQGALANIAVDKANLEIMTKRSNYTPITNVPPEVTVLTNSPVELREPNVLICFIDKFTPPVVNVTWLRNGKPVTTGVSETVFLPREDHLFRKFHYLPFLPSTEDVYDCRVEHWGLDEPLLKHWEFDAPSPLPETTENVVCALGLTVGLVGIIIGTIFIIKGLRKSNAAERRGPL
HLA-DR DRB1*1302 (DR13), sequence (P01903 26-254 limits assumed, other chains not shown): as above

| Compound | IC50 [1] [µM] | IC50 [2] [µM] | IC50 [3] [µM] | IC50 [4] [µM] | IC50 [5] [µM] | IC50 [6] [µM] | IC50 [7] [µM] | IC50 [8] [µM] | IC50 [9] [µM] | IC50 [10] [µM] | IC50 [11] [µM] |
| --- | --- | --- | --- | --- | --- | --- | --- | --- | --- | --- | --- |
| LSGLHGQDLFGIWSK | 32.2 | > 125 | > 26.7 | > 81.7 | 0.148 | 30.2 | > 35 | > 8.83 | > 35.7 | 81.7 |  |
| CC[C@H](C)[C@H](NC(=O)[C@@H]1CCCN1C(=O)[C@H](CC(=O)O)NC(=O)[C@@H](NC(=O)[C@@H]1CCCN1C(=O)[C@H](Cc1ccccc1)NC(=O)[C@@H](NC(=O)[C@H](CC(=O)O)NC(=O)[C@@H](NC(=O)[C@@H]1CCCN1C(=O)[C@H](CO)NC(=O)[C@@H](N)CCCNC(=N)N)[C@@H](C)CC)[C@@H](C)O)[C@@H](C)O)C(=O)N[C@@H](CCCCN)C(=O)N[C@@H](CCC(=O)O)C(=O)N[C@@H](CO)C(=O)O | 2.37 | 6.12 |  | > 245 | > 50 | > 200 | > 35 | > 14.4 | > 62.5 | 28.6 | 0.469 |
| CC[C@H](C)[C@H](NC(=O)[C@H](CO)NC(=O)[C@H](CC(N)=O)NC(=O)[C@H](C)NC(=O)[C@H](CC(C)C)NC(=O)[C@H](CCC(=O)O)NC(=O)[C@H](Cc1ccccc1)NC(=O)[C@@H](N)C(C)C)C(=O)N[C@H](C(=O)N[C@@H](CC(C)C)C(=O)N1CCC[C@H]1C(=O)N[C@@H](Cc1ccccc1)C(=O)N[C@@H](CC(=O)O)C(=O)N[C@@H](CS)C(=O)N[C@@H](CCCNC(=N)N)C(=O)O)C(C)C | 0.477 | 0.05 | 0.999 | 36.1 | 0.019 | 11.8 | 0.024 | 0.128 | 0.039 |  |  |
| TNKFSGYPLYHSVYE | 0.489 | 0.741 | 5.52 | 0.614 | 3.4 | 33.3 | > 35 | > 21.9 | 30.9 | 2.94 |  |
| GKVFRGNKVKNAQLA | 3.37 | 31.3 | 1.09 | 4.12 | 0.612 | 0.894 | 0.046 | 7.59 | 2.35 |  | 7.88 |
| CSCC[C@H](NC(=O)[C@H](CCC(=O)O)NC(=O)[C@H](CCC(N)=O)NC(=O)[C@@H]1CCCN1)C(=O)N[C@@H](CCCCN)C(=O)N[C@H](C(=O)N[C@@H](Cc1ccc(O)cc1)C(=O)N[C@@H](CO)C(=O)N[C@H](C(=O)N[C@@H](CO)C(=O)N[C@@H](Cc1ccccc1)C(=O)N[C@@H](CC(=O)O)C(=O)N[C@@H](CO)C(=O)N[C@@H](CC(C)C)C(=O)N[C@@H](Cc1ccccc1)C(=O)O)C(C)C)[C@@H](C)O | 0.919 | 1.98 | 3.02 | > 98 | 15.1 | > 50 | 24.7 | 14.6 |  | ≥ 100 | 0.579 |
| RVPVSHSFPHPLYNM | 5.52 | 0.097 | > 16 | 100 | 0.067 | > 200 | 0.377 | > 14.9 |  |  | 9.21 |
| CSCC[C@H](NC(=O)[C@H](CC(=O)O)NC(=O)[C@H](Cc1ccc(O)cc1)NC(=O)[C@H](CC(C)C)NC(=O)[C@@H]1CCCN1C(=O)[C@H](Cc1c[nH]cn1)NC(=O)[C@@H]1CCCN1)C(=O)N[C@@H](CO)C(=O)N[C@@H](CC(C)C)C(=O)N[C@@H](CC(C)C)C(=O)N[C@@H](CCCCN)C(=O)N[C@@H](CC(N)=O)C(=O)N[C@@H](CCCNC(=N)N)C(=O)N[C@@H](Cc1ccccc1)C(=O)N[C@@H](CC(C)C)C(=O)O | 0.712 | 12.8 | 20.8 | 29.8 |  | > 50 | 11.7 | > 13.5 | 10.7 | 3.1 | 7.49 |
| CC[C@H](C)[C@H](NC(=O)[C@@H](N)CC(C)C)C(=O)N[C@@H](CCSC)C(=O)N[C@@H](Cc1ccc(O)cc1)C(=O)N[C@@H](CO)C(=O)N[C@@H](C)C(=O)N[C@@H](Cc1c[nH]cn1)C(=O)N[C@@H](CC(=O)O)C(=O)N[C@H](C(=O)N[C@H](C(=O)N[C@H](C(=O)N[C@@H](CO)C(=O)NCC(=O)N[C@@H](CC(C)C)C(=O)N[C@@H](CCC(N)=O)C(=O)O)C(C)C)[C@@H](C)O)[C@@H](C)O | 0.184 | 0.813 | 0.024 | 24.8 | 4.5 | > 66.7 | 1.75 | 6.83 |  | > 100 | 4.38 |
| CC[C@H](C)[C@H](NC(=O)[C@@H]1CCCN1C(=O)[C@H](Cc1c[nH]cn1)NC(=O)[C@@H](NC(=O)[C@@H]1CCCN1C(=O)[C@@H](NC(=O)[C@H](CO)NC(=O)[C@@H]1CCCN1C(=O)[C@H](CC(C)C)NC(=O)CNC(=O)[C@@H](NC(=O)[C@H](C)NC(=O)[C@H](CCC(=O)O)NC(=O)[C@H](C)N)C(C)C)[C@@H](C)CC)C(C)C)C(=O)NCC(=O)O | 0.056 | 23.1 | 9.92 | > 490 | 0.0054 | > 66.7 | 5.46 | > 11.8 | 2.02 | 69.3 |  |
| CC(C)C[C@H](NC(=O)[C@H](CCC(N)=O)NC(=O)[C@H](C)NC(=O)[C@H](CC(N)=O)NC(=O)[C@H](CCCCN)NC(=O)[C@@H](NC(=O)[C@H](CCCCN)NC(=O)[C@H](CC(N)=O)NC(=O)CN)C(C)C)C(=O)N[C@@H](C)C(=O)NCC(=O)N[C@@H](C)C(=O)N[C@@H](CCCCN)C(=O)NCC(=O)N[C@H](C(=O)O)C(C)C | > 45.5 | 7.88 |  | 28.9 | 0.677 | > 66.7 | > 35 | > 12.5 | > 83.3 | 1.22 |  |
| DFEVFFQRLGIASGR | 10.2 | 2 | 0.221 | 0.122 |  | 0.128 | 10.1 | 30.7 | 21.9 | 3.56 | 0.0042 |
| CC(C)C[C@H](NC(=O)[C@H](CCC(=O)O)NC(=O)[C@H](CCCCN)NC(=O)[C@H](C)NC(=O)[C@H](CC(C)C)NC(=O)[C@@H](NC(=O)[C@H](CO)NC(=O)[C@H](CCCNC(=N)N)NC(=O)[C@@H](N)CC(=O)O)C(C)C)C(=O)N[C@@H](CCCCN)C(=O)N[C@@H](Cc1ccccc1)C(=O)N[C@H](C(=O)N[C@H](C(=O)N[C@@H](CC(C)C)C(=O)N[C@H](C(=O)O)C(C)C)[C@@H](C)O)C(C)C | 1.36 | 4.72 |  | 15.8 |  | 21 | 4.41 | > 14.4 | 2.02 | 2.22 | 0.053 |
| CC[C@H](C)[C@H](NC(=O)[C@@H](NC(=O)[C@@H]1CCCN1C(=O)CNC(=O)[C@@H](NC(=O)[C@H](CC(C)C)NC(=O)[C@H](CCC(=O)O)NC(=O)[C@H](C)NC(=O)[C@@H](N)Cc1ccccc1)C(C)C)C(C)C)C(=O)N1CCC[C@H]1C(=O)N[C@@H](CCC(N)=O)C(=O)N[C@@H](CC(=O)O)C(=O)N[C@@H](Cc1c[nH]c2ccccc12)C(=O)N[C@@H](CO)C(=O)N[C@H](C(=O)O)[C@@H](C)O | > 45.5 | 39.5 |  | > 245 | 0.012 | > 50 | > 35 | > 15 | 24.1 | > 200 | 0.983 |
